The results in this text go back to ChEMBL document CHEMBL4765337, “Optical control of muscular nicotinic channels with azocuroniums, photoswitchable azobenzenes bearing two N-methyl-N-carbocyclic quaternary ammonium groups” (Eur J Med Chem, 2020).

The structures appear in SMILES notation. Calls of active or inactive are those of the source. The calls are words filed in the database; no cut-off is given here.

Series [1] is described as follows: Thermodynamic solubility of the compound in aqueous phosphate buffer at pH 7.4 measured after 24 hrs by UV-spectra reader analysis. The format is physicochemical. The settings on record: read-out: Therm_solubility.
The nature of series [2]: Effective permeability of compound measured after 240 mins by PAMPA-BBB assay based UV/Vis spectrophotometer analysis. The format is ADME. The settings on record: read-out: Peff. In general terms: PAMPA measures passive passage across an artificial lipid membrane.
Series [3] has as its system RAW264.7. Briefly: Cytotoxicity against mouse RAW264.7 cells assessed as cell viability at 10 uM measured after 24 hrs by MTT assay. The note with it: raw264.7, 24 h. The format is cell-based.
In series [4] the target is T1, Neuronal acetylcholine receptor; alpha4/beta2 (Homo sapiens, UniProt P17787+P43681). Briefly: Displacement of [125I] alpha bungarotoxin from human neuronal alpha4beta2 nAChR expressed in human SH-SY5Y cell membrane at 10 uM measured after 120 mins by Topcount scintillation counting method. The format is cell membranes.
A short description of series [5]: Antagonist activity at rat alpha1beta1gamma1delta1 nAChR expressed in Xenopus laevis oocytes assessed as inhibition of ACh puff-induced maximum channel current amplitude measured at holding potential of -60 mV by two-electrode voltage clamp technique. The settings on record: oocyte. The format is cell-based.
Series [6] deals with T2, Neuronal acetylcholine receptor subunit alpha-7 (Homo sapiens, UniProt P36544). Kind of series: Displacement of [125I] alpha bungarotoxin from human neuronal alpha7 nAChR expressed in human SH-SY5Y cell membrane measured after 120 mins by Topcount scintillation counting method. The format is cell membranes. On the technique in general: Loss of bound radioactivity is the signal in a displacement assay; it reports binding, not function.

A short description of series [7]: Displacement of [125I] alpha bungarotoxin from human muscle type nAChR expressed in human TE-671 cell membrane measured after 120 mins by Topcount scintillation counting method. The format is cell membranes.
For series [8], the target named is T1, Neuronal acetylcholine receptor; alpha4/beta2. Briefly: Displacement of [125I] alpha bungarotoxin from human neuronal alpha4beta2 nAChR expressed in human SH-SY5Y cell membrane measured after 120 mins by Topcount scintillation counting method. The format is cell membranes.
Series [9] relates to Oocyte. Briefly: Antagonist activity at rat alpha1beta1gamma1delta1 nAChR expressed in Xenopus laevis oocytes assessed as inhibition of ACh puff-induced maximum channel current amplitude by measuring current fraction ratio measured at holding potential of -60 mV by two-electrode voltage clamp technique. The format is cell-based. A general note: In two-electrode clamp one electrode senses voltage and the other passes current.

Series [10] in a line: Antagonist activity at rat alpha1beta1gamma1delta1 nAChR expressed in Xenopus laevis oocytes assessed as inhibition of ACh puff-induced maximum channel current amplitude using UV LED light irradiated compound measured at holding potential of -60 mV by two-electrode voltage clamp technique. The format is cell-based. The note with it: oocyte.
The target in series [11] is T2, Neuronal acetylcholine receptor subunit alpha-7. Kind of series: Displacement of [125I] alpha bungarotoxin from human neuronal alpha7 nAChR expressed in human SH-SY5Y cell membrane at 10 uM measured after 120 mins by Topcount scintillation counting method. Type of series: cell membranes.
For series [12], the system named is Oocyte. Kind of series: Antagonist activity at rat alpha1beta1gamma1delta1 nAChR expressed in Xenopus laevis oocytes assessed as inhibition of ACh puff-induced maximum channel current amplitude at 5 uM measured at holding potential of -60 mV by two-electrode voltage clamp technique. The format is cell-based. The settings on record: filed as antagonist.
Series [13] deals with Oocyte. Briefly: Antagonist activity at rat alpha1beta1gamma1delta1 nAChR expressed in Xenopus laevis oocytes assessed as inhibition of ACh puff-induced maximum channel current amplitude at 5 uM measured following irradiation with UV LED light irradiation at holding potential of -60 mV by two-electrode voltage clamp technique. Type of series: cell-based.
Series [14] has as its system Oocyte. Kind of series: Antagonist activity at rat alpha1beta1gamma1delta1 nAChR expressed in Xenopus laevis oocytes assessed as inhibition of constant UV LED light irradiation-induced channel activation by measuring faster decay of Ach-induced channel current amplitude at 0.5 uM using blue LED light irradiated compound measured at holding potential of -60 mV by two-electrode voltage clamp technique. The settings on record: filed as antagonist. Type of series: cell-based.

In series [15] the test system is Oocyte. Briefly: Antagonist activity at rat alpha1beta1gamma1delta1 nAChR expressed in Xenopus laevis oocytes assessed as inhibition of ACh puff-induced maximum channel current amplitude at 0.1 to 5 uM measured following irradiation with UV LED light irradiation at holding potential of -60 mV by two-electrode voltage clamp technique. Type of series: cell-based. The note with it: dose 0.1-5 µM.

For series [16], the system named is Oocyte. Kind of series: Antagonist activity at rat alpha1beta1gamma1delta1 nAChR expressed in Xenopus laevis oocytes assessed as inhibition of ACh puff-induced maximum channel current amplitude at 0.1 to 5 uM measured at holding potential of -60 mV by two-electrode voltage clamp technique. The note with it: filed as antagonist, dose 0.1-5 µM. The format is cell-based.

Series [17] is filed under the species Homo sapiens. Kind of series: Selectivity index, ratio of Ki for human neuronal alpha7 nAChR expressed in human SH-SY5Y cell membrane to Ki for human muscle type nAChR expressed in human TE-671 cell membrane. Type of series: cell-based.
The species entered for series [18] is Homo sapiens. Briefly: Selectivity index, ratio of Ki for human neuronal alpha4beta2 nAChR expressed in human SH-SY5Y cell membrane to Ki for human muscle type nAChR expressed in human TE-671 cell membrane. The format is cell-based.
Series [19] has as its system TE-671. Briefly: Displacement of [125I] alpha bungarotoxin from human muscle type nAChR expressed in human TE-671 cell membrane at 10 uM measured after 120 mins by Topcount scintillation counting method. Type of series: cell membranes. The settings on record: filed as antagonist.
For series [20], the system named is Oocyte. Briefly: Antagonist activity at rat alpha1beta1gamma1delta1 nAChR expressed in Xenopus laevis oocytes assessed as inhibition of ACh puff-induced maximum channel current amplitude by measuring current fraction ratio using UV LED light irradiated compound measured at holding potential of -60 mV by two-electrode voltage clamp technique. Type of series: cell-based.

T1 sequence (P17787 whole entry): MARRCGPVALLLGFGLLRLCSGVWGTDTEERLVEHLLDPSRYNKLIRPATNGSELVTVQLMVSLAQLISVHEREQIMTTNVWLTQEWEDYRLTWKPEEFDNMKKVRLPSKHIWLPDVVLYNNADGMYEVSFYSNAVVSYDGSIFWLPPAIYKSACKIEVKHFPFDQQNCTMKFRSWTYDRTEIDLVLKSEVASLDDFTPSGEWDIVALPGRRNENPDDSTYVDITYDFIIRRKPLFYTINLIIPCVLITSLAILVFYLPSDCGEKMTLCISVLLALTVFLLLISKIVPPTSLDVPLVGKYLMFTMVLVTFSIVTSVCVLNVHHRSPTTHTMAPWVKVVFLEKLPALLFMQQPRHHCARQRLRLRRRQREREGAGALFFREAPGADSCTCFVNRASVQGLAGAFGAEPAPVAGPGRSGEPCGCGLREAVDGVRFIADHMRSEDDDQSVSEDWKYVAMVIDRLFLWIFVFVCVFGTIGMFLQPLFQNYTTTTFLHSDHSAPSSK
T1 sequence (P43681 whole entry): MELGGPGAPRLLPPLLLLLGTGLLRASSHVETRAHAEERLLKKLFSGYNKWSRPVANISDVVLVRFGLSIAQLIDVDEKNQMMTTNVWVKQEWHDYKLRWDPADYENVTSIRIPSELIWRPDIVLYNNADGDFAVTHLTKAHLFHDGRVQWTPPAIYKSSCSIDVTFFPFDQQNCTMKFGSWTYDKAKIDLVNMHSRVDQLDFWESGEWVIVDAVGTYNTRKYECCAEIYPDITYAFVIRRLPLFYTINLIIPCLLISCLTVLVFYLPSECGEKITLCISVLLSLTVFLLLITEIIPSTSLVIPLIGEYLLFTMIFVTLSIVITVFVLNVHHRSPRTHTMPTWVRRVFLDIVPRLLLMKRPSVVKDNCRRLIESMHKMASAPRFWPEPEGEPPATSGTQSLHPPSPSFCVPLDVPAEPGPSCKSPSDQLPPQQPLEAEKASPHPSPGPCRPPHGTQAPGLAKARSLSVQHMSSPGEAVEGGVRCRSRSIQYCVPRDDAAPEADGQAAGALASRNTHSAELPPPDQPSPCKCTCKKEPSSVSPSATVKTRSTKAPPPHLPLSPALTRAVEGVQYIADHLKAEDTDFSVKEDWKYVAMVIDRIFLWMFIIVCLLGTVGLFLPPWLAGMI
T2 sequence (P36544 whole entry): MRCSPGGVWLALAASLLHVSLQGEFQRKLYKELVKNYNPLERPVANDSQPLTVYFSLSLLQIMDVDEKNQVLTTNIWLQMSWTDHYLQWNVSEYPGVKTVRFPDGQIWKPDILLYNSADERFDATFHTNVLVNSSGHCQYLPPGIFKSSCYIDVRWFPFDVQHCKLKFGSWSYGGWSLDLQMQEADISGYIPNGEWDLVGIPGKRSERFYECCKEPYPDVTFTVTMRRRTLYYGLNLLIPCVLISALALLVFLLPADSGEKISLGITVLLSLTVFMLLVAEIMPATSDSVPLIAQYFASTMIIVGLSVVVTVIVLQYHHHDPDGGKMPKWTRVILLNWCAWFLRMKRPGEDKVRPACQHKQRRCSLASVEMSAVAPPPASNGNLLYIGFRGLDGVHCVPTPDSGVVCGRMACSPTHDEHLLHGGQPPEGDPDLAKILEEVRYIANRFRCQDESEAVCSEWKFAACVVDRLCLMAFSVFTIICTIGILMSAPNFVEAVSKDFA

A word on the inhibition: it is the change of the read-out against control, counted positive when it falls. Usually Ki stands for the equilibrium dissociation constant of an inhibitor or competing ligand from its target. In the case of `C[N+]1(Cc2cccc(/N=N/c3cccc(C[N+]4(C)CC=CCC4)c3)c2)CC=CCC1.[I-].[I-]` (centres undefined), the solubility thermodynamic at 24 h in [1] was 16.3 mM. Further, the Papp at 4 h in series [2] is below 1 ×10⁻⁶ cm/s. Further, the Activity result in series [3] is on record as “Non-Toxic”. Also, in series [4], the inhibition stood at 32%. For the same molecule, the Ki in [5] was 840 nM; in [6], 730 nM; in series [7], 100 nM; in [8] it was above 10000 nM. The Ratio in series [9] was found to be 0.11.
`C[N+]1(Cc2ccc(/N=N/c3ccc(C[N+]4(C)CCCC4)cc3)cc2)CCCC1.[I-].[I-]`: in [1], the solubility thermodynamic at 24 h amounted to 14.8 mM. Also, the Papp at 4 h in [2] was below 1 ×10⁻⁶ cm/s. Moreover, in [3], the Activity result was “Non-Toxic”. For the same molecule, the inhibition in series [4] (filed as antagonist) was 45%. Moreover, the Ki was 930 nM in [6], 200 nM in [7] and above 10000 nM in [8].
`C[N+]1(Cc2cccc(/N=N/c3cccc(C[N+]4(C)CCCCCC4)c3)c2)CCCCCC1.[I-].[I-]`: the solubility thermodynamic at 24 h in series [1] came out at 5.9 mM. The Papp at 4 h in [2] is below 1 ×10⁻⁶ cm/s. Moreover, in [3], the Activity entry is “Non-Toxic”. This molecule showed an inhibition in [4] of 29%. Further, the Ki was 300 nM in series [5], 1900 nM in series [6], 220 nM in series [7] and above 10000 nM in [8].
Regarding `C[N+]1(Cc2cccc(/N=N\c3cccc(C[N+]4(C)CCCCC4)c3)c2)CCCCC1`, the Ki in series [10] was found to be 2600 nM.
Turning to `C[N+]1(Cc2ccc(/N=N/c3ccc(C[N+]4(C)CCCCC4)cc3)cc2)CCCCC1.[I-].[I-]`, the solubility thermodynamic at 24 h in [1] was determined as 34.9 mM. For the same molecule, the Papp at 4 h in [2] is below 1 ×10⁻⁶ cm/s. Further, the Activity entry in series [3] is on record as “Non-Toxic”. The molecule further yielded an inhibition in series [11] of 16%. The values for the inhibition constant Ki in [6], in series [7] and in series [8] were above 10000 nM, 1100 nM and 1500 nM, respectively.
As for `C[N+]1(Cc2cccc(/N=N/c3cccc(C[N+]4(C)CCCCC4)c3)c2)CCCCC1.[I-].[I-]`, the inhibition entry in series [12], in [14] and in series [16] was “Active” each time. Also, in series [1], the solubility thermodynamic at 24 h was 38.4 mM. Besides, the Papp at 4 h in [2] is below 1 ×10⁻⁶ cm/s. In series [3], the Activity result is “Non-Toxic”. In addition, the inhibition in series [4] was found to be 7%. Further, the inhibition entry in series [13] and in series [15] was “inactive” throughout. In addition, the Ki was 460 nM in series [5], 910 nM in series [6], 35 nM in series [7] and above 10000 nM in [8]. Further, the results for the Ratio Ki in series [17] and in [18] were 26 and above 290, respectively.
As to `C[N+]1(Cc2cccc(/N=N\c3cccc(C[N+]4(C)CCCCCC4)c3)c2)CCCCCC1`, the Ki in series [10] stood at 2600 nM.
The molecule `Clc1ccc([C@H]2C[C@@H]3CC[C@H]2N3)cn1` [(-)-EPIBATIDINE] displayed a Ki in [6] of 120 nM.
Consider `C[N+]1(Cc2cccc(/N=N/c3ccccc3)c2)CCCCC1.[I-]`, for which the solubility thermodynamic at 24 h in series [1] amounted to 5.5 mM. Moreover, the Papp at 4 h in series [2] amounted to 2 ×10⁻⁶ cm/s. In addition, the Activity result in [3] is given as “Non-Toxic”. In addition, the figures for the inhibition in series [19], in [11] (filed as antagonist) and in series [4] were 45%, 48% and 39%, respectively. Moreover, the Ki in series [6], in series [7] and in [8] was above 10000 nM in each case.
Consider `C[N+]1(Cc2cccc(/N=N\c3cccc(C[N+]4(C)CC=CCC4)c3)c2)CC=CCC1` (centres undefined), for which the inhibitory constant (Ki) in [10] amounted to 880 nM. Further, the Ratio in series [20] is 0.35.
As for `C[N+]1(Cc2cccc(/N=N/c3cccc(C[N+]4(C)CCCC4)c3)c2)CCCC1.[I-].[I-]`, the solubility thermodynamic at 24 h in series [1] was found to be 36.3 mM. The Papp at 4 h in series [2] was below 1 ×10⁻⁶ cm/s. In addition, the Activity result in series [3] is “Non-Toxic”. This molecule displayed an inhibition in series [4] of 31%. Moreover, the Ki in series [6] is 2500 nM; in series [7], 42 nM; in series [8], above 10000 nM. Besides, the Ratio Ki in [17] is 60; in [18], above 240.
